Values of other authors, collected in patent US20180235913A1, “AN ORAL PHARMACEUTICAL FORMULATION COMPRISING SUSTAINED-RELEASE GRANULES CONTAINING TAMSULOSIN HYDROCHLORIDE” (HANMI PHARM. CO., LTD., priority 2015, published 2018).
Structures can show the parent of a compound that is named as a salt.

Conditions: white crystalline powder

Structure (SMILES): CCOc1ccccc1OCCN[C@H](C)Cc1ccc(OC)c(S(N)(=O)=O)c1 [Tamsulosin hydrochloride]
- Water solubility: slight water solubility
